Reference: patent publication US10526330B2, “JAK kinase inhibitor compounds for treatment of respiratory disease” (THERAVANCE BIOPHARMA R&D IP, LLC, priority 2015, dated 2020)

Experiments:
[1] = Pharmacokinetics in plasma and lung in mouse; assay type: in vivo; settings: oral aspiration, lung AUC (μg hr/g) to plasma AUC (μg hr/mL)
Description: Plasma and lung levels of test compounds and ratios thereof were determined in the following manner. BALB/c mice from Charles River Laboratories were used in the assay. Test compounds were individually formulated in 20% propylene glycol in pH 4 citrate buffer at a concentration of 0.2 mg/mL and 50 uL of the dosing solution was introduced into the trachea of a mouse by oral aspiration. At various time points (typically 0.167, 2, 6, 24 hr) post dosing, blood samples were removed via cardiac puncture and intact lungs were excised from the mice. Blood samples were centrifuged (Eppendorf centrifuge, 5804R) for 4 minutes at approximately 12,000 rpm at 4° C. to collect plasma. Lungs were padded dry, weighed, and homogenized at a dilution of 1:3 in sterile water. Plasma and lung levels of test compound were determined by LC-MS analysis against analytical standards constructed into a standard curve in the test matrix. A lung to plasma ratio was determined as the ratio of the lung AUC in μg hr/g to the plasma AUC in μg hr/mL, where AUC is conventionally defined as the area under the curve of test compound concentration vs. time.

[2] = tested on: IL-13 induced STAT6 phosphorylation in BEAS-2B human lung epithelial cells; assay: AlphaScreen JAK1 cellular potency assay in BEAS-2B cells; assay type: cell-based
IL-13 induced pSTAT6 = assay: Murine model of IL-13 induced pSTAT6 induction in lung tissue; assay type: in vivo; settings: mouse lung; for lung concentration smaller than that of the corresponding compound of the invention by a factor: pharmacodynamic assay, versus Examples 1, 7, 13, 6
Description: Il-13 is an important cytokine underlying the pathophysiology of asthma (Kudlacz et al. Eur. J. Pharmacol, 2008, 582, 154-161). IL-13 binds to cell surface receptors activating members of the Janus family of kinases (JAK) which then phosphorylate STAT6 and subsequently activates further transcription pathways. In the described model, a dose of IL-13 was delivered locally into the lungs of mice to induce the phosphorylation of STAT6 (pSTAT6) which is then measured as the endpoint.
Adult balb/c mice from Harlan were used in the assay. On the day of study, animals were lightly anesthetized with isoflurane and administered either vehicle or test compound (0.5 mg/mL, 50 μL total volume over several breaths) via oral aspiration. Animals were placed in lateral recumbency post dose and monitored for full recovery from anesthesia before being returned to their home cage. Four hours later, animals were once again briefly anesthetized and challenged with either vehicle or IL-13 (0.03 μg total dose delivered, 50 μL total volume) via oral aspiration before being monitored for recovery from anesthesia and returned to their home cage. One hour after vehicle or IL-13 administration, lungs were collected for both pSTAT6 detection using an anti-pSTAT6 ELISA (rabbit mAb capture/coating antibody; mouse mAb detection/report antibody: anti-pSTAT6-pY641; secondary antibody: anti-mouse IgG-HRP) and analyzed for total drug concentration as described above in Assay 4.
Selected compounds of the invention were tested in the assay. Activity in the model is evidenced by a decrease in the level of pSTAT6 present in the lungs of treated animals at 5 hours compared to the vehicle treated, IL-13 challenged control animals. The difference between the control animals which were vehicle-treated, IL-13 challenged and the control animals which were vehicle-treated, vehicle challenged dictated the 0% and 100% inhibitory effect, respectively, in any given experiment.

JAK1 = JAK1 (Homo sapiens (Human), UniProt P23458); assay: LanthaScreen JAK1 biochemical assay; settings: versus Examples 1, 7, 13, 6
[3] = Dynamic moisture sorption assessment; assay type: physicochemical
Description: Dynamic moisture sorption (DMS) measurement was performed using a VTI atmospheric microbalance, SGA-100 system (VTI Corp., Hialeah, Fla. 33016). A weighed sample was used and the humidity was lowest possible value (close to 0% RH) at the start of the analysis. The DMS analysis consisted of an initial drying step (˜0% RH) for 120 minutes, followed by two cycles of sorption and desorption with a scan rate of 5% RH/step over the humidity range of 5% RH to 90% RH. The DMS run was performed isothermally at 25° C.

JAK1, sequence (P23458 whole entry): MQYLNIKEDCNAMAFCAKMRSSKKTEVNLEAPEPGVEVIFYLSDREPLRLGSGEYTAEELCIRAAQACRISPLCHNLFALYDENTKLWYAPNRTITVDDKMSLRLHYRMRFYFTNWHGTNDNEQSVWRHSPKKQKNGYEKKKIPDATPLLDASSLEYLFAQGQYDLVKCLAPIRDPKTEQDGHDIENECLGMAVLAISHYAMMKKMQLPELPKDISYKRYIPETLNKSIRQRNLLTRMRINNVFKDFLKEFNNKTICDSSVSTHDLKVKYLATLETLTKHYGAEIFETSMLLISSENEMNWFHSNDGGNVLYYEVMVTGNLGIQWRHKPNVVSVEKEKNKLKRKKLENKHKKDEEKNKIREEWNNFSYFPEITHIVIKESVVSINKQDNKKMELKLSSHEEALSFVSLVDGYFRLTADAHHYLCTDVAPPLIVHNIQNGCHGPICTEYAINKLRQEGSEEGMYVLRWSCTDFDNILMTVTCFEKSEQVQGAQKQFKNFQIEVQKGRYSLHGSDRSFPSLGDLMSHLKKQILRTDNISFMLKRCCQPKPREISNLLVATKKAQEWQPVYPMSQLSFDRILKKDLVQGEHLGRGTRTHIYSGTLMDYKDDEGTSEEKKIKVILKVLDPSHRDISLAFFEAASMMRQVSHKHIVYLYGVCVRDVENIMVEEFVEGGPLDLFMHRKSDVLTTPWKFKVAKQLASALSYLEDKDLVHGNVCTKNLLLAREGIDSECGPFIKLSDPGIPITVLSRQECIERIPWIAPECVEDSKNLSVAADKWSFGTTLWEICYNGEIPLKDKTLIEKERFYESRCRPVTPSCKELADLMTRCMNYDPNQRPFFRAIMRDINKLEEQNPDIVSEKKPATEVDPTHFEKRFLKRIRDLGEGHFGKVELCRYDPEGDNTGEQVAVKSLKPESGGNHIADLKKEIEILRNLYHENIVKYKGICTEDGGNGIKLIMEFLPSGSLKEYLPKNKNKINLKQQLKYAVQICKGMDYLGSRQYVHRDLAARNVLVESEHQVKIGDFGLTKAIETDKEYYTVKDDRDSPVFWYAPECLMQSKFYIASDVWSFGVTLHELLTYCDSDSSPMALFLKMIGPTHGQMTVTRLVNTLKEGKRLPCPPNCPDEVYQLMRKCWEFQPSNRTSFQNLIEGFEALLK

Structure (SMILES): CCc1cc(O)c(F)cc1-c1ccc2c(-c3nc4c([nH]3)CCN(CC3CNC3)C4)n[nH]c2c1 [Example 14-7]
- Lung to Plasma ratio Assay 4 [1]: A (A denotes a ratio >100)

Structure (SMILES): CCc1cc(O)c(F)cc1-c1ccc2c(-c3nc4c([nH]3)CCN(CCN(C)CC(C)C)C4)n[nH]c2c1 [Example 3-33]
- Lung to Plasma ratio Assay 4 [1]: A (A denotes a ratio >100)

Structure (SMILES): CCc1cc(O)c(F)cc1-c1ccc2c(-c3nc4c([nH]3)CCN(C[C@H]3COCCN3)C4)n[nH]c2c1 [Example 13, (S)-5-Ethyl-2-fluoro-4-(3-(5-(morpholin-3-ylmethyl)-4,5,6,7-tetrahydro-1H-imidazo[4,5-c]pyridin-2-yl)-1H-indazol-6-yl)phenol]
- Lung to Plasma ratio Assay 4 [1]: A (A denotes a ratio >100)

Structure (SMILES): CCc1cc(O)c(F)cc1-c1ccc2c(-c3nc4c([nH]3)CCN(CCNC3CC(OC)C3)C4)n[nH]c2c1 (centres unmarked) [Example 3-30]
- BEAS-2B pIC50 [2]: A (A represents a pIC50 value ≥8 (IC50≤10 nM))

Structure (SMILES): CCc1cc(O)c(F)cc1-c1ccc2c(-c3nc4c([nH]3)CCN(C[C@@H]3COCCN3)C4)n[nH]c2c1 [Example 14, (R)-5-Ethyl-2-fluoro-4-(3-(5-(morpholin-3-ylmethyl)-4,5,6,7-tetrahydro-1H-imidazo[4,5-c]pyridin-2-yl)-1H-indazol-6-yl)phenol]
- Lung to Plasma ratio Assay 4 [1]: A (A denotes a ratio >100)

Structure (SMILES): CCc1cc(O)c(F)cc1-c1ccc2c(-c3nc4c([nH]3)CCN(C3CCC(C)CC3)C4)n[nH]c2c1 (centres unmarked) [Example C-4]
- lung concentration smaller than that of the corresponding compound of the invention by a factor (IL-13 induced pSTAT6): 23
- fold less potent than the corresponding compound of the invention in the enzyme assay (JAK1): 2.5 fold

Structure (SMILES): CCc1cc(O)c(F)cc1-c1ccc2c(-c3nc4c([nH]3)CCN(CCC(C)C)C4)n[nH]c2c1 [Example C-2]
- lung concentration smaller than that of the corresponding compound of the invention by a factor (IL-13 induced pSTAT6): 52
- fold less potent than the corresponding compound of the invention in the enzyme assay (JAK1): 3 fold

Structure (SMILES): CCc1cc(O)c(F)cc1-c1ccc2c(-c3nc4c([nH]3)CCN(C[C@@H]3CCCN3C)C4)n[nH]c2c1 [Example 11, (S)-5-ethyl-2-fluoro-4-(3-(5-((1-methylpyrrolidin-2-yl)methyl)-4,5,6,7-tetrahydro-1H-imidazo[4,5-c]pyridin-2-yl)-1H-indazol-6-yl)phenol]
- Lung to Plasma ratio Assay 4 [1]: A (A denotes a ratio >100)

Structure (SMILES): CCc1cc(O)c(F)cc1-c1ccc2c(-c3nc4c([nH]3)CCN(CC3CCCOC3)C4)n[nH]c2c1 (centres unmarked) [Example C-3]
- lung concentration smaller than that of the corresponding compound of the invention by a factor (IL-13 induced pSTAT6): 13
- fold less potent than the corresponding compound of the invention in the enzyme assay (JAK1): 6 fold

Structure (SMILES): CCc1cc(O)c(F)cc1-c1ccc2c(-c3nc4c([nH]3)CCN(CCNC3(C#N)CC3)C4)n[nH]c2c1 [Example 3-1]
- pSTAT6 inhibition in the pharmacodynamic assay (IL-13 induced pSTAT6): noted as exceptions

Structure (SMILES): CCc1cc(O)c(F)cc1-c1ccc2c(-c3nc4c([nH]3)CCN(C3CCN(C)CC3)C4)n[nH]c2c1 [crystalline hydrate, 5-ethyl-2-fluoro-4-(3-(5-(1-methylpiperidin-4-yl)-4,5,6,7-tetrahydro-1H-imidazo[4,5-c]pyridin-2-yl)-1H-indazol-6-yl)phenol]
- hygroscopicity [3]: non-hygroscopic
- weight gain (dynamic moisture sorption) ([3]; 5% to 90% relative humidity, 25° C.): less than 0.12%

Structure (SMILES): CCc1cc(O)c(F)cc1-c1ccc2c(-c3nc4c([nH]3)CCN(CCNC3CC(OC)C3)C4)n[nH]c2c1 (centres unmarked) [Example 8, 5-Ethyl-2-fluoro-4-(3-(5-(2-((3-methoxycyclobutyl)amino)ethyl)-4,5,6,7-tetrahydro-1H-imidazo[4,5-c]pyridin-2-yl)-1H-indazol-6-yl)phenol]
- Lung to Plasma ratio Assay 4 [1]: A (A denotes a ratio >100)

Structure (SMILES): CCc1cc(O)c(F)cc1-c1ccc2c(-c3nc4c([nH]3)CCN(CCN3CCC[C@@H]3C)C4)n[nH]c2c1 [Example 15, (S)-5-ethyl-2-fluoro-4-(3-(5-(2-(2-methylpyrrolidin-1-yl)ethyl)-4,5,6,7-tetrahydro-1H-imidazo[4,5-c]pyridin-2-yl)-1H-indazol-6-yl)phenol]
- Lung to Plasma ratio Assay 4 [1]: A (A denotes a ratio >100)

Structure (SMILES): CCc1cc(O)c(F)cc1-c1ccc2c(-c3nc4c([nH]3)CCN(C3CC(C)C3)C4)n[nH]c2c1 (centres unmarked) [Example C-1, 5-Ethyl-2-fluoro-4-(3-(5-(3-methylcyclobutyl)-4,5,6,7-tetrahydro-1H-imidazo[4,5-c]pyridin-2-yl)-1H-indazol-6-yl)phenol]
- lung concentration smaller than that of the corresponding compound of the invention by a factor (IL-13 induced pSTAT6): 36
- fold less potent than the corresponding compound of the invention in the enzyme assay (JAK1): 2 fold

Structure (SMILES): CCc1cc(O)c(F)cc1-c1ccc2c(-c3nc4c([nH]3)CCN(C3CN(C5CCS(=O)(=O)C5)C3)C4)n[nH]c2c1 (centres unmarked) [Example 1-15]
- pSTAT6 inhibition in the pharmacodynamic assay (IL-13 induced pSTAT6): noted as exceptions
